Data reported in patent US12507703B2, “Methods, devices and compositions for preserving human milk” (The Trustees of Princeton University, priority 2023, dated 2025).
Where “and” joins values, the source holds several entries; their conditions need not be identical. Equal entries are not always repeated.

Each compound was assayed on lipase (assay: Lipase/lipolysis assay (EnzChek Lipase Substrate, quenched BODIPY-fatty acid conjugate) on stored human milk; on Lipase (RFU): test concentration or dose not given here).

Compound | Lipase (RFU) | Hit in lipase inhibition screen (in words)
O=C(O)c1cc(O)c2c(c1)[C@H]([C@H]1c3cc(C(=O)O)cc(O)c3C(=O)c3c(O[C@@H]4O[C@H](CO)[C@@H](O)[C@H](O)[C@H]4O)cccc31)c1cccc(O[C@@H]3O[C@H](CO)[C@@H](O)[C@H](O)[C@H]3O)c1C2=O [Sennoside A] | 1002.323 RFU | 
CC(C)(O[C@@H]1O[C@H](CO)[C@@H](O)[C@H](O)[C@H]1O)[C@H]1Oc2cc3oc(=O)ccc3cc2[C@H]1O [Smyrindioloside] | 1066.572 RFU | 
C[C@@H]1O[C@@H](OC[C@H]2O[C@@H](Oc3c(-c4ccc(O)cc4)oc4cc(O)cc(O)c4c3=O)[C@H](O[C@@H]3OC[C@@H](O)[C@H](O)[C@H]3O)[C@@H](O)[C@@H]2O)[C@H](O)[C@H](O)[C@H]1O [Camelliaside B] | 927.4235 RFU | 
C[C@@H]1O[C@@H](O[C@H]2C[C@@H](O)[C@]3(CO)[C@H]4[C@H](O)C[C@]5(C)[C@@H](C6=CC(=O)OC6)CC[C@]5(O)[C@@H]4CC[C@]3(O)C2)[C@H](O)[C@H](O)[C@H]1O.O.O.O.O.O.O.O.O [Ouabain (Octahydrate)] | 901.7077 RFU | 
Lignin | 849.2641 RFU | 
Tara gum | 841.631 RFU | 
C/C=C/C(=O)C1=C(C)C=CCC1(C)C [Damascenone] | 912.4849 RFU | 
O=C(O)[C@H]1O[C@@H](Oc2c(-c3ccc(O)cc3)oc3cc(O)cc(O)c3c2=O)[C@H](O)[C@@H](O)[C@@H]1O [Kaempferol 3-O-β-D-glucuronide] | 1023.998 RFU | 
CC(C)(O)C1Cc2cc3cc(-c4cc(O)cc(O)c4)oc3cc2O1 (stereo not drawn) [Moracin O] | 899.9132 RFU | 
CN(CC(=O)O)C(=N)NP(=O)(O)O [Phosphocreatine] | 915.1867 RFU | 
CC(=O)N[C@@H]1C(O)O[C@H](CO)[C@@H](O)[C@@H]1O (stereo partly drawn) [Cyclic N-Acetyl-D-mannosamine] | 868.6631 RFU | 
C[C@@H]1O[C@@H](O[C@H]2[C@H](Oc3cc(O)c4c(c3)O[C@H](c3ccc(O)c(O)c3)CC4=O)O[C@H](CO)[C@@H](O)[C@@H]2O)[C@H](O)[C@H](O)[C@H]1O [Neoeriocitrin] | 1015.344 RFU | 
Notoginsenoside Fe | 902.3283 RFU | 
C[C@H](CCC(=O)O)[C@H]1CC[C@H]2[C@@H]3CC[C@H]4C[C@@H](O)CC[C@]4(C)[C@H]3CC[C@]12C [Isoallolithocholic acid] | 881.405 RFU | 
NC(COP(=O)(O)O)C(=O)O (racemic) [DL-O-Phosphoserine] | 728.85 RFU | 
Cc1c[nH]c2ccccc12 [Skatole] | 735.1893 RFU and 599.6554 RFU | 
N[C@H]1CCOC1=O [L-Homoserine Lactone] | 1108.032 RFU | 
COc1cc2oc3cc(OC)c(OC)c(CC=C(C)C)c3c(=O)c2c(O)c1CC=C(C)C [Fuscaxanthone C] | 819.3619 RFU | 
C[C@H](CCC(=O)O)[C@H]1CC[C@H]2[C@@H]3[C@H](O)C[C@@H]4C[C@H](O)CC[C@]4(C)[C@H]3C[C@H](O)[C@]12C [Cholic acid] | 761.6522 RFU and 886.7213 RFU | 
OC[C@@]12OC[C@@H](O1)[C@@H](O)[C@@H](O)[C@@H]2O [Sedoheptulosan] | 1068.783 RFU | 
CCCCCCCCC(=O)NCc1ccc(O)c(OC)c1 [Nonivamide] | 911.9923 RFU and 1070.28 RFU | 
COc1cc(O[C@@H]2O[C@H](CO)[C@@H](O)[C@H](O)[C@H]2O)c2c(O)c(C(C)=O)c(C)cc2c1 [Torachrysone-8-O-b-D-glucoside] | 1039.734 RFU | 
OC[C@H]1NC[C@H](O)[C@@H](O)[C@@H]1O [Compound 1-Deoxynojirimycin] | 1029.468 RFU | 
O=C(O)[C@@H]1CCN1 [L-Azetidine-2-carboxylic acid] | 953.3787 RFU | 

Compound | Lipase (RFU) | Hit in lipase inhibition screen (in words)
C[C@]12CC[C@@H](O)C[C@H]1CC[C@@H]1[C@@H]2[C@@H](O)C[C@@]2(C)[C@H]1CC[C@]2(O)C(=O)CO [Tetrahydrocortisol] | 1127.321 RFU | 
Nc1nc2c(ncn2[C@@H]2O[C@@H]3COP(=O)([O-])O[C@H]3[C@H]2O)c(=O)[nH]1.[Na+] [Cyclic GMP (sodium)] | 1109.907 RFU | 
O=C(O)C[C@H](O)C(=O)O [(S)-Malic acid] | 1015.072 RFU and 818.4693 RFU | 
C=C1C(=O)O[C@@H]2[C@H]3C(CO)=CC(=O)C3=C(C)C[C@H](OC(=O)Cc3ccc(O)cc3)[C@@H]12 [Lactupicrin] | 995.7975 RFU | 
CC/C=C\CC1=C(C)CCC1=O [cis-Jasmone] | 1015.76 RFU | 
O=C[C@H](O)[C@H]1OC(=O)[C@@H](O)[C@H]1O [D-Glucuronic acid lactone] | 1111.254 RFU | 
Cc1cccc(C=O)c1 [m-Tolualdehyde] | 859.0901 RFU | 
CC1(C)C[C@H]2C3=CC[C@@H]4[C@@]5(C)CC[C@H](O)[C@](C)(CO)[C@@H]5CC[C@@]4(C)[C@]3(C)CC[C@@]2(C)[C@H](O)[C@@H]1O [Soyasapogenol A] | 1098.785 RFU | 
C[C@@H](CN)C(=O)O [(S)-b-aminoisobutyric acid] | 859.5436 RFU | 
CC(C)=CCC/C(C)=C/CC/C(C)=C/CC[C@]1(C)CCc2c(C)c(O)cc(C)c2O1 [β-Tocotrienol] | 668.6336 RFU | 
CC(=O)OC(C)(C)/C=C/C(=O)[C@](C)(O)[C@H]1[C@H](O)C[C@@]2(C)[C@@H]3CC=C4[C@H](C[C@H](O)C(=O)C4(C)C)[C@]3(C)C(=O)C[C@]12C [Cucurbitacin B] | 789.0588 RFU | 
CC(C)=CCC[C@](C)(O)[C@H]1CC[C@]2(C)[C@@H]1[C@H](O)C[C@@H]1[C@@]3(C)CC[C@H](O)C(C)(C)[C@@H]3[C@@H](O[C@@H]3O[C@H](CO)[C@@H](O)[C@H](O)[C@H]3O[C@@H]3OC[C@@H](O)[C@H](O)[C@H]3O)C[C@]12C [Notoginsenoside R2] | 955.4855 RFU | 
CC(C)CCC[C@@H](C)[C@H]1CC[C@H]2C3=C(CC[C@]12C)[C@@]1(C)CC[C@H](O)CC1=CC3 [8-Dehydrocholesterol] | 707.3733 RFU | 
O=C(O)[C@H]1O[C@@H](Oc2cc(O)c3c(=O)cc(-c4ccc(O)c(O)c4)oc3c2)[C@H](O)[C@@H](O)[C@@H]1O [Luteolin 7-O-glucuronide] | 995.7867 RFU | 
O=c1cc(-c2ccc(O)cc2)oc2c([C@@H]3O[C@H](CO)[C@@H](O)[C@H](O)[C@H]3O)c(O)c([C@@H]3OC[C@@H](O)[C@H](O)[C@H]3O)c(O)c12 [Vicenin-1] | 1046.904 RFU | 
O=C(O)CCCCC1CCSS1 (stereo not drawn) [Lipoic acid] | 1146.052 RFU | 
Chondroitin Sulfate C | 308.9045 RFU | significantly inhibited lipase activity
CC1=CC(=O)CC(C)(C)C1=O [Ketoisophorone] | 818.3204 RFU and 1086.358 RFU | 
O=c1ccc2cc(O)c(O[C@@H]3O[C@H](CO)[C@@H](O)[C@H](O)[C@H]3O)cc2o1 [Cichoriin] | 714.076 RFU | 
C=C1CC[C@H]2O[C@]2(C)CC[C@@H]2[C@@H]1CC2(C)C [Caryophyllene oxide] | 891.7497 RFU and 923.1149 RFU | 
NC(=O)CCCCC1CCSS1 (racemic) [D,L-Lipoamide] | 1094.48 RFU | 
(+)-Catechin hydrate | 928.2252 RFU | 
O=c1cc(-c2ccc(O)c(O)c2)oc2cc(O[C@@H]3O[C@H](CO)[C@@H](O)[C@H](O)[C@H]3O)c(O)c(O)c12 [6-Hydroxyluteolin 7-glucoside] | 1135.118 RFU | 
